Data set [1] deals with HNF4α, LXRα, RXRα and LXRβ ligand-binding domains fused to Gal4 DBD. Put plainly: GAL4 DBD fusions with LBDs of other nuclear receptors, luciferase reporter in HepG2 cells. The note with it: 50 μM CDCA, FIG. 1A. Format: cell-based.
Another data set concerns FXR / cyp7a promoter. To be noted: HepG2 cells.
For data set [2], the target named is T1, LXRα (Homo sapiens, UniProt Q13133).
T1 sequence (Q13133 1-447): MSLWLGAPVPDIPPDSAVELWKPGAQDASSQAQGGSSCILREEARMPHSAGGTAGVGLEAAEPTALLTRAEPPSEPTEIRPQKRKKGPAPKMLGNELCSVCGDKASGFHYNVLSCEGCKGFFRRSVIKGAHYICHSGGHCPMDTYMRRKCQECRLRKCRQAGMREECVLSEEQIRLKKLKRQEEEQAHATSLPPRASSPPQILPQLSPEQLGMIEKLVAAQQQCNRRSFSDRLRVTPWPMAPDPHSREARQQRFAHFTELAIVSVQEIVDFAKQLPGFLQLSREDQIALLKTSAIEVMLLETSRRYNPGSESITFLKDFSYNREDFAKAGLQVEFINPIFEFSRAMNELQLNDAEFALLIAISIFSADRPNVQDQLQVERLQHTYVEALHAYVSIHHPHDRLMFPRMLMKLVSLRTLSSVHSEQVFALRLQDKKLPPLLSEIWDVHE
Put plainly: FRET (HTRF) LXRα receptor control. It counts as binding. To be noted: FIG. 5B bottom panel.

Data set [3] deals with T1, LXRα. In words: ELISA peptide sensor assay, LXRα control. It counts as binding. To be noted: FIG. 5C bottom panel. The source says:
A peptide sensor was used.

The target in another data set is T2, full-length FXR (Homo sapiens, UniProt Q96RI1).
T2 construct: a plasmid expressing full-length FXR (PFXR); expressed in transfected cells; host or cells: HepG2
T2 sequence (Q96RI1 1-486): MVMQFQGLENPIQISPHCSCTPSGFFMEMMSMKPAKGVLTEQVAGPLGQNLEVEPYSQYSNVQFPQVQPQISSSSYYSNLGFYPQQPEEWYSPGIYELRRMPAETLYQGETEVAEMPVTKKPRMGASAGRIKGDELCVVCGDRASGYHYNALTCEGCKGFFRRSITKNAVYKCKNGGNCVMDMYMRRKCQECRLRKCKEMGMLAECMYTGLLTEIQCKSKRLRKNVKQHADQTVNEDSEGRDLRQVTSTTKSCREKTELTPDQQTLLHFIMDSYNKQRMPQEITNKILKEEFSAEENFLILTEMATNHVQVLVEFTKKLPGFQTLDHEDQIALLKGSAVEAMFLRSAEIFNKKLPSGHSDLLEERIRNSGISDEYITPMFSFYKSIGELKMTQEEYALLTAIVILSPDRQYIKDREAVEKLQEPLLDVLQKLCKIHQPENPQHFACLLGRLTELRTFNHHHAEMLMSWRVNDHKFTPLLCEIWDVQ
Put plainly: pGL3 3X FXRE luciferase reporter with full-length FXR in HepG2 cells. It counts as cell-based. The note with it: panel of bile acids, FIG. 4C. The text has this:
The ability of different bile acids and derivatives to activate FXR-mediated transactivation was also examined.
Background: In a reporter assay the amount or activity of a reporter protein is the signal.

“Also recorded” adds a separate entry of the source.

In the case of `C[C@H](CCC(=O)O)[C@H]1CC[C@H]2[C@@H]3[C@H](O)C[C@@H]4C[C@H](O)CC[C@]4(C)[C@H]3CC[C@]12C` [CDCA, chenodeoxycholic acid], the “activation of ligand binding domains of other nuclear receptors fused to GAL4 DBD” value in data set [1] was “not activated”. For the same compound, in the data set with FXR / cyp7a promoter (10 μM CDCA, FXR vs CPF, HNF4α, LXRα, RXRα, FIG. 2A), the “suppression of CYP7 expression by nuclear receptors in presence of CDCA” value is “Only FXR suppressed CYP7 expression”. Further, in the data set on FXR / cyp7a promoter (panel of bile acids, FIG. 4D), the “FXR-mediated suppression of CYP7 expression, rank among bile acids” value is “highest level of suppression; also recorded: largest repression”.
Take `C[C@H](CCC1OC1(C)C)[C@H]1CC[C@H]2[C@@H]3CC=C4C[C@@H](O)CC[C@]4(C)[C@H]3CC[C@]12C` (stereo partly drawn) [24,25 epoxycholesterol]: the “binding of LXRα receptor control by FRET” value on LXRα [2] was “affected”. Further, the “binding of sensor peptide to LXRα control (ELISA)” value at LXRα [3] is “increased binding”.
On to `CC(CCC(=O)NCC(=O)O)C1CCC2C3C(O)CC4CC(O)CCC4(C)C3CCC12C` (stereo not drawn) [GCDCA, glycochenodeoxycholic acid], for which the “induction of luciferase reporter activity (FXR-mediated transactivation), rank among bile acids” value at full-length FXR is recorded as “greatest induction”.

The values are drawn from patent US6465258B1, “FXR receptor-mediated modulation cholesterol metabolism” (Tularik, Inc., priority 1999, dated 2002).
